Assay results taken from patent US20070117864A1, “Composition for preventing and treating hepatoma” (Tokyo University of Agr. & Tech. TLO Co., Ltd., priority 2003, published 2007).
Marks after values point to notes of the source that are not given here.

Legend:
[1] = serum lipid levels in hepatoma-bearing rats; type: in vivo, rat; details: for Serum lipid level (VLDL + LDL)-Cholesterol (B): difference between T-Ch and HDL-Ch; for Serum lipid level (VLDL + LDL)-Cholesterol (B) / AI (B/A), atherogenic index / Serum lipid level HDL-Cholesterol (A) / Serum lipid level Total Cholesterol / Serum lipid level Triglyceride: mean ± SEM of 11 rats
Experimental: (§1) Male Donryu rats of four weeks old were purchased from NRC Haruna, Gumma, Japan, and were preliminarily fed for 6 days in quintuple cages in a room with a controlled environment with light period of 8:00 to 20:00, room temperature of 22±1° C., and relative humidity of 60±5%. For the first 3 days, the animals were fed ad libitum with a stock pellet diet (CE-2; CLEA Japan, Tokyo), and for the next 3 days, they were fed a basal diet containing 20% milk casein (20C) (Table 1) ad libitum together with tap water in a glass container. Following the completion of this preparatory raising, the rats were divided into three groups (11 animals per group) with equal average body weights of the respective groups were equal, and 1.0×10^7 of AH109A cells suspended in PBS (−) were transplanted in the back of all the rats. From the time immediately after transplantation, in the respective experimental groups, the animals were fed the experimental diets shown in Table 2. During the experimental period, the body weight, food intake and solid tumor size (sum of length, width and height) were measured everyday. On the day that the animals were killed, animals were deprived of experimental diets at 9:00, but freely given water until they were killed 4 hours later. Blood was collected from carotid, and the liver and solid tumors were excised. The collected blood was allowed to stand for approximately 2 hours at room temperature, and then centrifuged for 10 minutes at 3000 rpm (1750×g), 4° C., to obtain serum. This blood serum was frozen and stored at −20° C. The livers and solid tumors were washed with physiological saline, blotted on filter paper, and weighed. Furthermore, feces from the 19th to 21st days after transplantation were collected, and these feces were frozen and stored at −20° C. for the measurement of the amounts of steroids excreted from the body. Serum cholesterol (Ch) and triglyceride (TG) concentration was measured. Total cholesterol (T-Ch) level, the high-density-lipoprotein (HDL-Ch) level (which is the supernatant fraction obtained by precipitating very-low-density-lipoprotein+low-density-lipoprotein ((VLDL+LDL)-Ch fractions) by the precipitation method using phosphotungstic acid were measured. The (VLDL+LDL)-Ch level was taken as the difference between the T-Ch and the HDL-Ch levels. Atherogenic index (AI: (VLDL+LDL)-Ch/HDL-Ch ratio) was calculated as an index of atherogenesis.

AH109A cells = experiment: solid tumor growth and metastasis in hepatoma-bearing rats fed ENL-supplemented diets; type: in vivo, rat; details: for Total number of metastasis/group / Hepatoma weight: 21 days; for Hepatoma weight: mean ± SEM of 11 rats
Experimental: as §1, with “The length, width” for “Serum cholesterol (Ch)”, “height of” for “triglyceride (TG) concentration was measured. Total cholesterol (T-Ch) level,”, “solid tumors” for “high-density-lipoprotein (HDL-Ch) level (which is the supernatant fraction obtained by precipitating very-low-density-lipoprotein+low-density-lipoprotein ((VLDL+LDL)-Ch fractions) by the precipitation method using phosphotungstic acid”, “measured,” for “measured. The (VLDL+LDL)-Ch level was taken as the difference between the T-Ch”, “sums of these values were used” for “HDL-Ch levels. Atherogenic index (AI: (VLDL+LDL)-Ch/HDL-Ch ratio) was calculated”, “solid tumor size.” for “atherogenesis.”

[2] = ENL diet groups versus control diet group

O=C1OCC(Cc2cccc(O)c2)C1Cc1cccc(O)c1 (centres unmarked) [Enterolactone, enterolactone]
(VLDL+LDL)-Ch in the blood serum [1, 2]: decreased significantly in a dose-dependent manner | AI value, ratio of (VLDL+LDL)-Ch to HDL-Ch [1, 2]: tendency to decrease | HDL-Ch in the blood serum ([1]; ENL diet groups versus control diet group, not significant): tendency increase | Serum lipid level (VLDL + LDL)-Cholesterol (B) ([1]; diet 10 ppm): 0.68 ± 0.12^b mmol/L | AI (B/A), atherogenic index ([1]; diet 10 ppm): 0.48 ± 0.09 | Serum lipid level HDL-Cholesterol (A) ([1]; diet 10 ppm): 1.45 ± 0.07 mmol/L | Serum lipid level Total Cholesterol ([1]; diet 10 ppm): 2.13 ± 0.14 mmol/L | Serum lipid level Triglyceride ([1]; diet 10 ppm): 0.98 ± 0.06 mmol/L | Serum lipid level (VLDL + LDL)-Cholesterol (B) ([1]; diet 100 ppm): 0.67 ± 0.08^b mmol/L | AI (B/A), atherogenic index ([1]; diet 100 ppm): 0.41 ± 0.05 | Serum lipid level HDL-Cholesterol (A) ([1]; diet 100 ppm): 1.63 ± 0.06 mmol/L | Serum lipid level Total Cholesterol ([1]; diet 100 ppm): 2.30 ± 0.12 mmol/L | Serum lipid level Triglyceride ([1]; diet 100 ppm): 0.93 ± 0.06 mmol/L | solid tumor sizes (sum of length, width and height) (AH109A cells; 100 ppm ENL diet, 7th, 8th and 18th to 21 days after transplantation, versus control diet): significant suppression | metastasis over 21 days following transplantation (AH109A cells; ENL diet groups (10 and 100 ppm)): no metastasis was observed | solid tumor weight (AH109A cells; both ENL ingestion groups versus control): significant decrease | Total number of metastasis/group (AH109A cells; diet 10 ppm): 0 | Hepatoma weight (AH109A cells; diet 10 ppm): 3.4 ± 1^b g/rat | Total number of metastasis/group (AH109A cells; diet 100 ppm): 0 | Hepatoma weight (AH109A cells; diet 100 ppm): 1.1 ± 0.2^b g/rat
